According to the supplement of paper PMC11061612:

Experiments:
U-698-M [1] = test: Bliss excess, mean over the matrix (fraction); higher = more synergy; details: U-[…], B-Cell Non-Hodgkin's Lymphoma
Procedure, shortened: (§1)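 Cell lines grown in DMEM/F12 or RPMI with 10% FBS were plated in 1536-well plates and held 24 hours at 37°C, 5% CO2 before 72 hours of exposure to two-drug dose matrices, with DMSO typically at 0.2%. CellTiter-Glo 2.0 luminescence gave viability, which was converted to inhibition. Vehicle wells were set to 0 and blank wells to 1. Combination Emax is the second-highest inhibition in the matrix, and Bliss excess is the observed combination effect minus the expected EA + EB − EA·EB, where EA and EB are the single-agent effects.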

U-698-M [2] = test: combination Emax (second highest fraction inhibited in the dose matrix, 72 h); higher = more inhibition; details: B-Cell Non-Hodgkin's Lymphoma
Procedure, shortened: as §1

[3] = first compound max 1 µM, partner max 3 µM, 7x7
[4] = first compound max 1 µM, partner max 1 µM, 7x7
[5] = first compound max 10 µM, partner max 10 µM, 7x7
[6] = first compound max 1 µM, partner max 10 µM, 7x7
[7] = first compound max 10 µM, partner max 1 µM, 7x7
[8] = first compound max 10 µM, partner max 0.3 µM, 7x7
[9] = first compound max 0.3 µM, partner max 1 µM, 7x7
[10] = first compound max 1 µM, partner max 1 µM
[11] = first compound max 10 µM, partner max 20 µM, 7x7
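Wherever Bliss excess, mean over the matrix is given: after 72 h of two-drug dosing.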

CN(CCO)CC[C@H](CSc1ccccc1)Nc1ccc(S(=O)(=O)NC(=O)c2ccc(N3CCC([C@@H](O)c4ccccc4-c4ccc(Cl)cc4)CC3)cc2)cc1S(=O)(=O)C(F)(F)F [AZD4320] + C[C@@H](Nc1cc(F)cc(F)c1)c1cc(C(=O)N(C)C)cc2c(=O)cc(N3CCOCC3)oc12 [AZD8186]
Bliss excess (U-698-M [1]; [3]): 0.0074
combination Emax (U-698-M [2]; [3]): 0.348

C[C@@H](c1ccc2nccn2c1)n1nnc2ncc(-c3cnn(C)c3)nc21 [Savolitinib] + CC1(C)CCC(CN2CCN(c3ccc(C(=O)NS(=O)(=O)c4ccc(NCC5CCOCC5)c([N+](=O)[O-])c4)c(Oc4cnc5[nH]ccc5c4)c3)CC2)=C(c2ccc(Cl)cc2)C1 [Venetoclax]
Bliss excess (U-698-M [1]; [4]): -0.0313
combination Emax (U-698-M [2]; [4]): 0.191

C[C@@H]1COCCN1c1cc(C2([S@](C)(=N)=O)CC2)nc(-c2ccnc3[nH]ccc23)n1 [AZD6738] + C1CC(C1)(C(=O)[O-])C(=O)[O-].N.N.[Pt+2] [Carboplatin]
Bliss excess (U-698-M [1]; [5]): -0.0625
combination Emax (U-698-M [2]; [5]): 0.84

Cc1c2c(nn1C)CSCc1cc(n(C)n1)CSc1cc(c3ccccc3c1)OCCCc1c(C(=O)O)n(C)c3c-2c(Cl)ccc13 [AZD5991] + CS(=O)(=O)CCNCc1ccc(-c2ccc3ncnc(Nc4ccc(OCc5cccc(F)c5)c(Cl)c4)c3c2)o1 [Lapatinib]
Bliss excess (U-698-M [1]; [6]): 0.0295
combination Emax (U-698-M [2]; [6]): 0.992

CN(C)CCCOc1ccc(-c2ccc3ncc4c(c3c2)n(C2CCOCC2)c(=O)n4C)cn1 [AZD0156] + C[C@@H]1COCCN1C2=NC(=NC(=C2)C3(CC3)[S@](=N)(=O)C)C4=C5C=CNC5=NC=C4 [AZD6738]
Bliss excess (U-698-M [1]; [6]): 0.0473
combination Emax (U-698-M [2]; [6]): 0.978

COc1nnc2ccc(N3CCC(c4ccc(OCCN5CCN(C)C(=O)[C@H]5C)cc4)CC3)nn12 [AZD5153] + Cn1cnc2c(F)c(Nc3ccc(Br)cc3Cl)c(C(=O)NOCCO)cc21 [Selumetinib]
Bliss excess (U-698-M [1]; [6]): -0.0573
combination Emax (U-698-M [2]; [6]): 0.622

CN(CCO)CC[C@H](CSc1ccccc1)Nc1ccc(S(=O)(=O)NC(=O)c2ccc(N3CCC([C@@H](O)c4ccccc4-c4ccc(Cl)cc4)CC3)cc2)cc1S(=O)(=O)C(F)(F)F [AZD4320] + Cc1cc2ncnn2cc1Nc1ncc2c(n1)n(C1CCOCC1)c(=O)n2C [AZD7648]
Bliss excess (U-698-M [1]; [6]): -0.016
combination Emax (U-698-M [2]; [6]): 0.415

Cn1cnc2c(F)c(Nc3ccc(Br)cc3Cl)c(C(=O)NOCCO)cc21 [Selumetinib] + CCN(CCO)CCCOc1ccc2c(Nc3cc(CC(=O)Nc4cccc(F)c4)[nH]n3)ncnc2c1 [AZD2811]
Bliss excess (U-698-M [1]; [7]): 0.0099
combination Emax (U-698-M [2]; [7]): 0.253

N#Cc1cnc(Nc2cc(NC[C@H]3CNCCO3)c(C(F)(F)F)cn2)cn1 [SRA737] + CCc1c2c(nc3ccc(O)cc13)-c1cc3c(c(=O)n1C2)COC(=O)[C@]3(O)CC [SN-38]
Bliss excess (U-698-M [1]; [8]): -0.0229
combination Emax (U-698-M [2]; [8]): 0.963

CC1(C)CCC(CN2CCN(c3ccc(C(=O)NS(=O)(=O)c4ccc(NCC5CCOCC5)c([N+](=O)[O-])c4)c(Oc4cnc5[nH]ccc5c4)c3)CC2)=C(c2ccc(Cl)cc2)C1 [Venetoclax] + COc1cc(Nc2ncc3c(n2)-c2ccc(Cl)cc2C(c2c(F)cccc2OC)=NC3)ccc1C(=O)O [Alisertib]
Bliss excess (U-698-M [1]; [6]): 0.0827
combination Emax (U-698-M [2]; [6]): 0.592

O=C(c1cc(Cc2n[nH]c(=O)c3ccccc23)ccc1F)N1CCN(C(=O)C2CC2)CC1 [Olaparib] + CN(CC[C@H](CSC1=CC=CC=C1)NC2=C(C=C(C=C2)S(=O)(=O)NC(=O)C3=CC=C(C=C3)N4CCC(CC4)[C@H](C5=CC=CC=C5C6=CC=C(C=C6)Cl)O)S(=O)(=O)C(F)(F)F)CCO [AZD4320]
Bliss excess (U-698-M [1]; [7]): -0.0494
combination Emax (U-698-M [2]; [7]): 0.135

COc1cccc(OCCCN)c1-c1cc(Nc2cnc(C#N)cn2)n[nH]1 [Prexasertib] + CCc1c2c(nc3ccc(O)cc13)-c1cc3c(c(=O)n1C2)COC(=O)[C@]3(O)CC [SN-38]
Bliss excess (U-698-M [1]; first compound max 1 µM, partner max 0.3 µM, 7x7): 0.0237
combination Emax (U-698-M [2]; first compound max 1 µM, partner max 0.3 µM, 7x7, may be a limit of the assay): 1

CN(CCO)CC[C@H](CSc1ccccc1)Nc1ccc(S(=O)(=O)NC(=O)c2ccc(N3CCC([C@@H](O)c4ccccc4-c4ccc(Cl)cc4)CC3)cc2)cc1S(=O)(=O)C(F)(F)F [AZD4320] + C[C@@H]1COCCN1C2=NC(=NC(=C2)C3(CC3)[S@](=N)(=O)C)C4=C5C=CNC5=NC=C4 [AZD6738]
Bliss excess (U-698-M [1]; [6]): -0.0427
combination Emax (U-698-M [2]; [6]): 0.773

CC(=O)c1c(C)c2cnc(Nc3ccc(N4CCNCC4)cn3)nc2n(C2CCCC2)c1=O [Palbociclib] + Cc1c2c(nn1C)CSCc1cc(n(C)n1)CSc1cc(c3ccccc3c1)OCCCc1c(C(=O)O)n(C)c3c-2c(Cl)ccc13 [AZD5991]
Bliss excess (U-698-M [1]; [7]): -0.0228
combination Emax (U-698-M [2]; [7]): 0.98

CCc1c2c(nc3ccc(O)cc13)-c1cc3c(c(=O)n1C2)COC(=O)[C@]3(O)CC [SN-38] + CN(C)CCCOc1ccc(-c2ccc3ncc4c(c3c2)n(C2CCOCC2)c(=O)n4C)cn1 [AZD0156]
Bliss excess (U-698-M [1]; [9]): 0.0615
combination Emax (U-698-M [2]; [9]): 0.908

COc1nnc2ccc(N3CCC(c4ccc(OCCN5CCN(C)C(=O)[C@H]5C)cc4)CC3)nn12 [AZD5153] + C=CCn1c(=O)c2cnc(Nc3ccc(N4CCN(C)CC4)cc3)nc2n1-c1cccc(C(C)(C)O)n1 [AZD1775]
Bliss excess (U-698-M [1]; [10]): -0.0574
combination Emax (U-698-M [2]; [10]): 0.961

COc1cccc(OCCCN)c1-c1cc(Nc2cnc(C#N)cn2)n[nH]1 [Prexasertib] + O=C(c1cc(Cc2n[nH]c(=O)c3ccccc23)ccc1F)N1CCN(C(=O)C2CC2)CC1 [Olaparib]
Bliss excess (U-698-M [1]; [6]): -0.0433
combination Emax (U-698-M [2]; [6]): 0.953

N#Cc1cnc(Nc2cc(NC[C@H]3CNCCO3)c(C(F)(F)F)cn2)cn1 [SRA737] + O=c1[nH]cc(F)c(=O)[nH]1 [5-Fluorouracil]
Bliss excess (U-698-M [1]; [11]): -0.0673
combination Emax (U-698-M [2]; [11]): 0.798

Cc1c2c(nn1C)CSCc1cc(n(C)n1)CSc1cc(c3ccccc3c1)OCCCc1c(C(=O)O)n(C)c3c-2c(Cl)ccc13 [AZD5991] + Cn1cnc2c(F)c(Nc3ccc(Br)cc3Cl)c(C(=O)NOCCO)cc21 [Selumetinib]
Bliss excess (U-698-M [1]; [3]): -0.0034
combination Emax (U-698-M [2]; first compound max 1 µM, partner max 3 µM, 7x7, may be a limit of the assay): 1

COc1cccc(OCCCN)c1-c1cc(Nc2cnc(C#N)cn2)n[nH]1 [Prexasertib] + Cc1cc2ncnn2cc1Nc1ncc2c(n1)n(C1CCOCC1)c(=O)n2C [AZD7648]
Bliss excess (U-698-M [1]; [6]): -0.0029
combination Emax (U-698-M [2]; [6]): 0.975

CCN(CCO)CCCOc1ccc2c(Nc3cc(CC(=O)Nc4cccc(F)c4)[nH]n3)ncnc2c1 [AZD2811] + C=CCn1c(=O)c2cnc(Nc3ccc(N4CCN(C)CC4)cc3)nc2n1-c1cccc(C(C)(C)O)n1 [AZD1775]
Bliss excess (U-698-M [1]; [10]): -0.0493
combination Emax (U-698-M [2]; [10]): 0.956

CN(CCO)CC[C@H](CSc1ccccc1)Nc1ccc(S(=O)(=O)NC(=O)c2ccc(N3CCC([C@@H](O)c4ccccc4-c4ccc(Cl)cc4)CC3)cc2)cc1S(=O)(=O)C(F)(F)F [AZD4320] + CS(=O)(=O)CCNCc1ccc(-c2ccc3ncnc(Nc4ccc(OCc5cccc(F)c5)c(Cl)c4)c3c2)o1 [Lapatinib]
Bliss excess (U-698-M [1]; [6]): -0.0415
combination Emax (U-698-M [2]; [6]): 0.551

NC1(C(=O)N[C@@H](CCO)c2ccc(Cl)cc2)CCN(c2ncnc3[nH]ccc23)CC1 [Capivasertib] + Cn1cnc2c(F)c(Nc3ccc(Br)cc3Cl)c(C(=O)NOCCO)cc21 [Selumetinib]
Bliss excess (U-698-M [1]; [5]): -0.0253
combination Emax (U-698-M [2]; [5]): 0.45

CC1(C)CCC(CN2CCN(c3ccc(C(=O)NS(=O)(=O)c4ccc(NCC5CCOCC5)c([N+](=O)[O-])c4)c(Oc4cnc5[nH]ccc5c4)c3)CC2)=C(c2ccc(Cl)cc2)C1 [Venetoclax] + C[C@@H](Nc1cc(F)cc(F)c1)c1cc(C(=O)N(C)C)cc2c(=O)cc(N3CCOCC3)oc12 [AZD8186]
Bliss excess (U-698-M [1]; [3]): -0.0045
combination Emax (U-698-M [2]; [3]): 0.564

COc1nnc2ccc(N3CCC(c4ccc(OCCN5CCN(C)C(=O)[C@H]5C)cc4)CC3)nn12 [AZD5153] + C[C@@H]1COCCN1C2=NC(=NC(=C2)C3(CC3)[S@](=N)(=O)C)C4=C5C=CNC5=NC=C4 [AZD6738]
Bliss excess (U-698-M [1]; [6]): -0.0616
combination Emax (U-698-M [2]; [6]): 0.912
